Experimental data published in ChEMBL document CHEMBL5385954, “Pepticinnamins N, O, and P, Nonribosomal Peptides from the Soil-Derived Streptomyces mirabilis P8-A2” (J Nat Prod, 2024).

What was measured:
[1] = system: LNCaP; assay: Cytotoxicity against human LNCaP cells assessed as inhibition of cell growth incubated for 72 hrs by CellTox Green cytotoxicity assay; type: functional, cell-based
[2] = system: Staphylococcus aureus; assay: Antimicrobial activity against Staphylococcus aureus 8325 incubated for 12 hrs by agar diffusion method; type: functional
[3] = system: Candida albicans; assay: Antimicrobial activity against Candida albicans IBT 656 incubated for 24 hrs by broth dilution method; type: functional
[4] = system: Pseudomonas aeruginosa; assay: Antimicrobial activity against Pseudomonas aeruginosa PAO1 incubated for 12 hrs by agar diffusion method; type: functional
[5] = system: LNCaP; assay: Cytotoxicity against drug resistant human LNCaP cells assessed as inhibition of cell growth incubated for 72 hrs by CellTox Green cytotoxicity assay; type: functional, cell-based
[6] = system: LNCaP C4-2B; assay: Cytotoxicity against drug resistant human LNCaP C4-2B cells assessed as inhibition of cell growth incubated for 72 hrs by CellTox Green cytotoxicity assay; type: functional, cell-based
[7] = system: LNCaP C4-2B; assay: Cytotoxicity against human LNCaP C4-2B cells assessed as inhibition of cell growth incubated for 72 hrs by CellTox Green cytotoxicity assay; type: functional, cell-based
[8] = system: Bacillus subtilis; assay: Antimicrobial activity against Bacillus subtilis incubated for 12 hrs by agar diffusion method; type: functional

MIC [2] [µg/mL] | MIC [3] [µg/mL] | MIC [4] [µg/mL] | MIC [8] [µg/mL] | SMILES | IC50 [1] [µM] | IC50 [5] [µM] | IC50 [6] [µM] | IC50 [7] [µM]
> 50 | > 50 | > 50 | > 50 | CCC/C=C\c1ccccc1/C=C/C(=O)N[C@H](Cc1ccc(O)cc1)C(=O)N(C)[C@@H](Cc1ccc(OC)c(O)c1)C(=O)N(C)[C@@H](Cc1ccccc1)C(=O)OC[C@H]1NC(=O)CNC1=O | > 10 | > 10 | > 10 | > 10
> 50 | > 50 | > 50 | > 50 | CCC/C=C\c1ccccc1/C=C/C(=O)N[C@H](Cc1ccc(O)cc1)C(=O)N(C)[C@@H](Cc1ccc(OC)c(O)c1)C(=O)N(C)[C@@H](Cc1ccccc1)C(=O)O | – | – | – | –
> 50 | > 50 | > 50 | > 50 | CCC/C=C\c1ccccc1/C=C/C(=O)N[C@H](Cc1ccc(O)cc1)C(=O)N(C)[C@@H](Cc1ccc(OC)c(O)c1Cl)C(=O)N(C)[C@@H](Cc1ccccc1)C(=O)OC[C@H]1NC(=O)CNC1=O | > 10 | > 10 | > 10 | > 10
> 50 | > 50 | > 50 | > 50 | CCC/C=C\c1ccccc1/C=C/C(=O)N[C@H](Cc1ccc(O)cc1)C(=O)N(C)[C@@H](Cc1ccc(OC)c(O)c1Cl)C(=O)N(C)[C@@H](Cc1ccccc1)C(=O)O | > 10 | > 10 | > 10 | > 10
